In article PMC11178805, “Ligand-based design of [^18F]OXD-2314 for PET imaging in non-Alzheimer’s disease tauopathies” (Nature Communications, 2024):
Where “and” joins values, the source holds several entries; their conditions need not be identical. Equal values may be shown once.

Experiments:
[1] = Mouse pharmacology (DMPK): plasma and brain concentrations, brain-to-plasma ratios after i.v. administration; type: in vivo, mice
Method: Ex vivo evaluation of the BBB permeability of OXD-2314 was performed by measuring the brain-to-plasma ratios in mice. Compound concentrations in plasma (0.03 h, 0.17 h, 0.5 h, 1 h, and 2 h; n = 3 per timepoint) were compared with concentrations in brain (0.03 h, 0.17 h, 1 h, and 2 h; n = 3 per timepoint) for both OXD-2115 and OXD-2314. The total brain-to-plasma concentration ratios were 1.7 for OXD-2314 and 0.1 for OXD-2115. The free concentration ratio for brain-to-plasma was 0.6 for OXD-2314 and 0.002 for OXD-2115 (Figs. S3–S8 and Tables S2, S3).

[2] = logD7.4 by shake-flask method; type: physicochemical; conditions: pH 7.4
Description: [^18F]OXD-2314 was radiolabeled by an analogous method previously reported for [^18F]OXD-2115 with minor modifications (Fig. 2)[30]. [^18F]OXD-2314 was reliably produced with high radiochemical purity (RCP) ranging from 95-98%, molar activity (Am) of […] (n = 4), and radiochemical yield (RCY) of 8.7 ± 3.7% (not decay-corrected, ndc) in the laboratories in Toronto and was replicated with Am of 349 ± 144 GBq/μmol (n = 4) and RCY of 2.3 ± 1.1% (ndc) in the laboratories in Pittsburgh. The logD7.4 value of [^18F]OXD-2314 was measured as 3.11 ± 0.04 using the shake-flask method.

| SMILES | Conc. (ng/ml), brain ([1]; mouse brain, t=1 hr after i.v. administration, individual animals, LC-MS/MS 341.7500>256.1500, re-run Brain_2) | Conc. (ng/ml), brain ([1]; mouse brain, t=2 hr after i.v. administration, individual animals, LC-MS/MS 341.7500>256.1500, re-run Brain_2) | Kp,uu (unbound brain-to-plasma ratio) ([1]; mouse, brain, iv, mice, i.v., AUC brain:plasma, FREE, read-out: free concentration ratio brain-to-plasma) | Kp ([1]; mouse, brain, iv, mice, i.v., AUC brain:plasma, TOTAL, read-out: total brain-to-plasma concentration ratio) | concentration at 1 h ([1]; mouse, brain, iv, mouse brain, t=1 hr after i.v. administration, individual animals, LC-MS/MS 341.7500>256.1500, re-run Brain_2, read-out: Conc. (ng/ml), brain) | logD [2] |
| --- | --- | --- | --- | --- | --- | --- |
| COC1CCCN(c2ccc(-c3cc4cc(O)ccc4[nH]3)c(F)n2)C1 (stereo not drawn) [OXD-2314, 2-(2-fluoro-6-(3-methoxypiperidin-1-yl)pyridin-3-yl)-1H-indol-5-ol] | 0.851 ng/mL | 0.647 ng/mL and 0.5 ng/mL and 0.3 ng/mL | 0.6 | 1.7 | 1 ng/mL |  |
| CO[C@H]1CCCN(c2ccc(-c3cc4cc(O)ccc4[nH]3)c([18F])n2)C1 [[^18F]OXD-2314] |  |  |  |  |  | 3.11 ± 0.04 |
